Patent publication US5858687A (priority 1995, dated 1999)
Entries after “also recorded” stand apart in the source; their conditions may differ.

Experiments:
[1] = tested on: human colon carcinoma HT-29 cells; type: cell-based
human melanoma cells = type: cell-based

## C=C(C=O)C[C@@H]1C[C@H](O)[C@]2(C)O[C@@H]3C[C@@H]4O[C@@H]5C[C@]6(C)O[C@]7(C)CC[C@@H]8O[C@@H]9C[C@]%10(C)O[C@@H]%11C(C)=CC(=O)O[C@H]%11C[C@H]%10O[C@H]9C[C@@H](C)[C@H]8O[C@H]7C[C@H]6O[C@H]5C/C=C\[C@H]4O[C@H]3C[C@H]2O1 [brevetoxin]
[1]
  response in the presence of ouabain and veratridine: lack of response
Human melanoma cells
  response in the presence of ouabain and veratridine: does not respond; also recorded: lack of response
